Experimental data taken from US11672828B2, “Cellular receptors and uses thereof” (TRUSTEES OF BOSTON UNIVERSITY, priority 2020, dated 2023).
“Also recorded” adds a separate entry of the source.

Tests used:
anti-Biotin ligand = test: Coculture luciferase assay, apSyN/BirA receiver cells with anti-Biotin ligand sender cells, soluble competitors; type: cell-based; details: different concentrations of the molecules in coculture
Experimental: To examine this behavior more quantitatively, we used an established luciferase-based coculture assay28. Receptor cells were transfected with a luciferase reporter plasmid, and ligand expressing cells were added the next day. Finally cells were lysed after one day of coculturing to examine the luminescence due to luciferase expression (FIG. 3C).
We also saw a similar ability to control activation with small molecules in this coculture assay. […] We sought to develop an inhibition method that is specific for this pathway and therefore allow for additional control of signaling without disrupting native pathways. […] We used the previously established coculture assay while culturing cells in different concentrations of the described molecules and then analyzed the corresponding luciferase expression.
(§1) The luciferase assay used for coculture studies was adapted from Gordon et al28. Synthetic Notch receiver cells were reverse transfected in a 96-well plate (50 k cells per well) with 9.9 ng of UAS:Firefly-Luciferase plasmid and 0.1 ng Nanoluc plasmid per well. 24 hr post-transfection, 80 k sender cells were added to each well. 48 hr post-transfection, cells were lysed (Nano-Glo Dual-Luciferase Reporter Assay System, Promega) and the luminescence was found following the manufacturer's instructions. Each well was normalized to the luminescence output of Nanoluc (transfection control).
Tight-regulation is a requirement of cell-engineered systems in biomedical applications, and such control can be achieved by combining genetic strategies with external drug-control. Thus, it was next sought to design exogenous molecules that could be combined with the present encodable components in order to achieve versatile “chemogenetic” control. Soluble binding proteins can be used to block trans-cellular interactions between endogenous Notch receptors and ligands. It was tested whether soluble biotin-derived compounds could be used to competitively interact between our synthetic ligand and receptor (FIG. 12G). […] In addition to their selective recognition by Anti-Biotinamide, the cell-impermeant nature of biocytin and bis-biotinamide offer the advantageous feature of limiting disruption/inhibition to cell-surface presented components.
as §1, with “al^59.” for “al28.”, “24 hr post-transfection, 80 k sender cells were added to each well.” left out, “(Nano-Go” for “(Nano-Glo”

[1] = tested on: anti-FITC Synthetic Notch; test: Coculture of anti-FITC Synthetic Notch cells and anti-biotin ligand cells with biotin-FITC linker (Luciferase reporter); type: cell-based; details: FIG. 20
Excerpt: FIG. 20 depicts graphs in which the x-axis of the plot is the biotin-FTC concentration, the y-axis is the extent of signaling (via a Luciferase reporter). The legend gives two different sender-cells used in the coculture—one with the anti-biotin ligand, and one without.
Described herein is the use of biotin-FITC as a small-molecule linker with the ability to induce trans-cellular signaling. In this coculture system, a first group of cells expressed an anti-FITC Synthetic Notch, which can bind one end of the biotin-FITC, and a second group of cells expressed an anti-biotin ligand (described in other Examples herein), which binds the other end.

apSyN = test: Plated ligand assay, apSyN (AP-SynNotch) cells with UAS:H2B-mCherry reporter; type: cell-based; details: for reporter (mCherry) activation by plated ligand: apSyN/AP-SynNotch cells with or without BirA-ER (BirA-KDEL)
Excerpt: In order to determine if the apSyN could undergo predicted signaling mechanics of extracellular binding and intracellular domain release based on the presence of the PTM, we used an established Notch signaling assay23 (FIG. 2A). […] We instead interrogated the signaling capabilities by coating tissue culture wells with an anti-Biotin antibody that is specific for biotinamide24.
Next to be evaluated were the signaling properties of AP-SynNotch. Here, the activity of the receptor in response to different ligands was compared in cells with and without BirA-KDEL. Using a receptor containing a Gal4-VP64 ICD, the signaling activity of AP-SynNotch was measured in transfected HEK293 cells containing a stably-integrated reporter gene (UAS:H2B-mCherry). In order to stimulate receptor activation, transfected cells were grown on culture surfaces containing immobilized ligands, and reporter expression levels were measured the next day using flow cytometry (FIG. 11D).

[2] = tested on: Anti-Biotinamide SynNotch; test: Anti-Biotinamide SynNotch cells on TCO-BSA coated wells with added biotin-tetrazine, flow cytometry; type: cell-based
Excerpt: (FIG. 13A). Receptors that are specific to biotinamide process inputs dependent on the biotinylation state of the ligand. (FIG. 13B). Anti-Biotinamide SynNotch expressing cells activate to both biotin-based and desthiobiotin-based substrates. The cells activate with slightly less adsorbed biotin than desthiobiotin. (FIG. 13C). Cells expressing Anti-Biotinamide SynNotch were cocultured with cells transfected with an AP-tagged cell surface ligand with or without BirA, or non-transfected cells. (FIG. 13D). Biotin-tetrazine (4) is a bispecific molecule that will bind to the Anti-Biotinamide antibody fragment and TCO-(5), which is conjugated to BSA. (FIG. 13E). Anti-Biotinamide SynNotch expressing cells cultured on TCO-conjugated BSA will bind to exogenously added biotin-tetrazine. (FIG. 13F). Anti-Biotinamide SynNotch expressing cells were cultured on wells coated with TCO-BSA and one day later, biotin-tetrazine was added at different concentrations to the wells. At two days after plating, cellular fluorescence was analyzed with flow cytometry.
In an effort to develop synthetic agonists, a bioorthogonal chemical ligation was also exploited in order to convert a soluble biotin derivative into an immobilized (signaling competent) ligand in situ. […]

antiBiot synthetic Notch = test: Plated ligand assay, antiBiot synthetic Notch (Anti-Biotinamide SynNotch) cells; details: soluble ligand introduced at the time of plating
Experimental: We first asked if this synthetic receptor cell line could activate to various ligands coated on a 96 well plate.
Nontreated 96-well plates were coated with Fibronectin (5 ng/mL) and plated ligand in 50 μL PBS for 1-hr. Initial experiments were done with a serial dilution of ligand to determine working concentrations. The wells were rinsed three times with 200 μL PBS, and 40 k synthetic Notch receiver cells were plated in each well. Receptor activation was measured 24 hr post-plating via fluorescence microscopy or flow cytometry.
Cells analyzed with an Attune NxT flow cytometer and were gated for living cells by scatter detection. The percent activation was determined by calculating the percentage of cells with mCherry expression levels above a certain threshold.
Nontreated 96-well plates were coated with Fibronectin (5 ng/mL) and plated ligand in 50 μL PBS for 1 hr. […] Receptor activation was measured 24 hr post-plating via fluorescence microscopy or flow cytometry.
Flow Cytometry Cells analyzed with an Attune NxT flow cytometer and were gated for single cells by scatter detection (FIGS. 19A-19C). Output files were analyzed with a custom MATLAB (Mathworks) script. The percent activation was determined by calculating the percentage of cells with mCherry expression levels above a determined threshold using the non-transfected control as a guide.

scFab-Gal4 and AP-VP64 = test: UAS:H2B-mCherry reporter cells with scFab-Gal4, AP-VP64 and BirA, treated with soluble biotinamides; type: cell-based; details: varying concentrations, compared with biocytin
Experimental: Reporter HEK293 cells with an integrated UAS:H2B-mCherry construct were transfected with a construct containing constitutive expression of AP-VP64 and AntiBiotinamide-scFAB-Gal4. The cells were cotransfected with a construct containing Citrine-HA-BirA. At the time of transfection, samples were incubated with different concentrations of Biocytin and Biotin-cadaverine. Samples were measured the next day with flow cytometry, gating for Citrine expression.
Lastly, it was asked whether intracellular protein complexes could be disrupted using exogenously applied biotinamide. To test this possibility, cells were treated with biocytin as well as biotin-cadaverine, a membrane-permeant biotinamide derivative (6). To measure the disruption of intracellular complexes, BirA was co-expressed alongside scFab-Gal4 and AP-VP64 in UAS:H2B-mCherry reporter cells, and the extent of mCherry expression was quantified from cells treated with varying concentrations of biocytin and biotin-cadaverine (FIG. 18A).

avidin = details: avidin-based systems; cited from earlier work
[3] = free biotin versus biotin with an amide linker; cited from earlier work

## O=C(O)CCCC[C@@H]1SC[C@@H]2NC(=O)N[C@@H]21 [biotin]
anti-Biotin ligand
  inhibition of cell signaling (luciferase) by competitive binding to the ligand: limited impact on cell signaling

## biotin-FITC
[1]
  signaling capacity versus concentration: low concentrations do not induce signaling, and high concentrations lead to lower signaling

## C[C@H](NC(=O)Cc1cc(F)cc(F)c1)C(=O)N[C@H](C(=O)OC(C)(C)C)c1ccccc1 [DAPT]
apSyN; plated anti-Biotin or anti-myc antibody
  effect of Notch pathway (γ-secretase) inhibitor on mCherry expression: ablated mCherry expression in all cases

## biotin-tetrazine
[2]; biotin-tetrazine added one day after plating on TCO-BSA
  reporter activation: able to activate reporter expression only when cultured with biotin-tetrazine
[2]; high concentrations of biotin-tetrazine
  inhibition of receptor activation: inhibited with high concentrations

## N[C@@H](CCCCNC(=O)CCCC[C@@H]1SC[C@@H]2NC(=O)N[C@@H]21)C(=O)O [biocytin]
anti-Biotin ligand
  inhibition of cell signaling (luciferase) by competitive binding to the ligand: able to inhibit cell signaling to some degree; also recorded: act as inhibitors of signaling
antiBiot synthetic Notch
  concentration at which activation was lowered: 3 µM

## bis-biotinamide
anti-Biotin ligand
  inhibition of cell signaling (luciferase) by competitive binding to the ligand: more potent inhibition
anti-Biotin ligand; listed as Bis-biotinamide
  inhibition of cell signaling (luciferase) by competitive binding to the ligand: increased ability to inhibit cell activation; also recorded: inhibits more effectively

## Neutravidin: adsorbed biotin-binding protein
apSyN
  reporter (mCherry) activation by plated ligand: able to activate apSyN cells, but has decreased activation at higher concentrations
apSyN; listed as neutravidin
  reporter (mCherry) activation by plated ligand: can activate the biotinylated receptor

## biotin-cadaverine
scFab-Gal4 and AP-VP64
  inhibition of intracellular biotin-dependent reporter (mCherry) expression: more sensitive
scFab-Gal4 and AP-VP64; listed as Biotin-cadaverine
  inhibition of intracellular biotin-dependent reporter (mCherry) expression: effective competitive inhibitor

## C[C@@H]1NC(=O)N[C@@H]1CCCCCC(=O)O [desthiobiotin]
avidin
  binding constant, fold less than biotin: 106 fold

B1: biotinamide-specific antibody: antibody from which the anti-biotinamide single chain variable fragment was developed (antibody)
heavy: EVQLQQSGAELVKPGASVKLSCTSSGFNNKDTFFQWVKQRPEEGLEWIGRIDPANGFTKYDPKFQGKATITVDTSSNTAYLQLNSLTSEDTALYYCTRWDTYGAAWFAYWGQGTLVTVSAAKTTPPSVYPLAPGSAAQTNSMVTLGCLVKGYFPEPVTVTWNSGSLSSGVHTFPAVLQSDLYTLSSSVTVPSSTWPSETVTCNVAHPASSTKVDKKIVPR
light: DIQMTQSPASLSASVGETVTITCRASGNIHNYLSWFQQKQGKSPQLLVYSAKTLADGVPSRFSGSGSGTQYSLKINSLQPEDFGTYYCQHFWSSIYTFGGGTKLEIKRADAAPTVSIFPPSSEQLTSGGASVVCFLNNFYPKDINVKWKIDGSERQNGVLNSWTDQDSKDSTYSMSSTLTLTKDEYERHNSYTCEATHKTSTSPIVKSFNRNEC
[3]
  binding specificity: does not bind to free biotin but binds to biotin with an amide linker
